Assay results from patent US8299074B2, “P38 MAP kinase inhibitors” (RespiVert Ltd., priority 2008, dated 2012).
Read-outs that look alike come from different tables or passages of the source.

Tests used:
THP-1 cells = assay: LPS-induced TNF alpha release in THP-1 cells; format: cell-based; conditions: Homo sapiens
Experimental: LPS-Induced TNF Alpha Release in THP-1 Cells: Potency […] Coli; O111:B4, Sigma) for 4 hr and the supernatant collected for determination of TNFα concentration by sandwich ELISA (Duo-set, R&D systems). The inhibition of TNFα production was calculated at each concentration by comparison with vehicle control.

BEAS2B cells = assay: Poly I:C-induced ICAM-1 induction in BEAS2B cells; format: cell-based; conditions: Homo sapiens, BEAS-2B, read-out: BEAS2B (polyIC) ICAM1 IC50
Summary of the method: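 Poly I:C (1 ug/ml) transfected into BEAS2B cells after 2 h compound pre-incubation. Surface ICAM-1 measured by cell-based ELISA 18 h post-transfection (HRP, OD450–655), corrected for cell number by OD595.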

U937 cells [1] = assay: LPS-induced TNF alpha release in U937 cells; format: cell-based
Summary of the method: (§1)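 U937 cells differentiated with PMA (100 ng/ml) for 48 to 72 hours, pre-treated with compound for 2 hrs, then stimulated with E. coli O111:B4 LPS for 4 hrs. Supernatant TNFα and IL-8 measured by sandwich ELISA; inhibition at each concentration versus vehicle control.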

[2] = tested on: Differentiated U937 cells; assay: MTT assay (cell viability); format: cell-based, human
Summary of the method: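 Differentiated U937 cells pre-incubated with compound 4 h in 5% FCS or 24 h in 10% FCS; MTT read at 550 nm after DMSO solubilisation. Percentage loss of viability relative to 0.5% DMSO vehicle; apparent increases appear as negative percentages.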

p38 MAPK alpha (MAPK14) = molecular target: T1, p38 MAPK alpha (MAPK14) (Homo sapiens, UniProt Q16539); assay: Enzyme inhibition assay, p38 MAPK alpha (FRET, Z-LYTE, via MAPKAP-K2); format: biochemical; conditions: read-out: Enzyme p38α IC50
T1 construct: purchased Invitrogen
T1 sequence (Q16539 whole entry): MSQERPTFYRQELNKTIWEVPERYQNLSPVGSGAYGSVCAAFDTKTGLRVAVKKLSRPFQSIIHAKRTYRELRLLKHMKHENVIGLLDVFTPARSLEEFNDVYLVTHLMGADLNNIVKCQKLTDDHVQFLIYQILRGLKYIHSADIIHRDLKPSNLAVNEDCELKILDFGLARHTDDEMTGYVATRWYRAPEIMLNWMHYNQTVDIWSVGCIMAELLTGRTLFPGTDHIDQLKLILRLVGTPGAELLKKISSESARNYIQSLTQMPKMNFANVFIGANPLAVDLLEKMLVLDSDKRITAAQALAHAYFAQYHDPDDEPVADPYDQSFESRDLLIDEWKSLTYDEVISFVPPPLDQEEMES

U937 cells [3] = assay: LPS-induced IL-8 release in U937 cells; format: cell-based; conditions: Homo sapiens, read-out: DU937 (LPS) IL-8 IC50
Summary of the method: as §1

[4] = THP-1, Table 3, read-out: THP-1 (LPS) TNFα IC50
[5] = Homo sapiens; read-out: DU937 (LPS) TNFα REC50
[6] = Table 3, first MTT column, loss of cell viability at 1 μg/ml
[7] = Table 3, second MTT column, loss of cell viability at 1 μg/ml
[8] = THP-1, Table 2, read-out: THP-1 (LPS) TNFα IC50
[9] = Table 2, loss of cell viability at 1 μg/ml
[10] = Table 2, loss of cell viability, test conducted at 10 μg/ml

SMILES | EC50 (U937 cells [1]; [5]) | IC50 (THP-1 cells; [8]) | IC50 (p38 MAPK alpha (MAPK14); Table 2) | IC50 (U937 cells [3]; Table 2) | IC50 (THP-1 cells; [4]) | IC50 (BEAS2B cells; Table 3) | DU937 (cell viability) MTT assay 4 h [2, 6] | DU937 (cell viability) MTT assay 4 h [2, 7] | IC50 (p38 MAPK alpha (MAPK14); Table 3) | IC50 (U937 cells [3]; Table 3) | IC50 (BEAS2B cells; Table 2) | DU937 (cell viability) MTT assay 4 h [2, 9] | DU937 (cell viability) MTT assay 24 h [2, 9] | IC50 (THP-1 cells; THP-1, read-out: THP-1 (LPS) TNFα IC50) | IC50 (BEAS2B cells) | EC50 (U937 cells [1]; Homo sapiens, read-out: DU937 (LPS) TNFα REC50) | IC50 (U937 cells [3]) | DU937 (cell viability) MTT assay 4 h [2, 10] | DU937 (cell viability) MTT assay 24 h [2, 10]
COCCNC(=O)CNC(=O)Nc1cc(Oc2ccc(NC(=O)Nc3cc(C(C)(C)C)nn3-c3ccc(C)cc3)c3ccccc23)ccn1 [Example 62] | < 10 nM |  |  |  | < 10 nM | < 10 nM | − (<=30%) | − (<=30%) | < 10 nM | < 10 nM |  |  |  |  |  |  |  |  | 
Cc1ccc(-n2nc(C(C)(C)C)cc2NC(=O)Nc2ccc(Oc3ccnc(NC(=O)N(C)C)c3)c3ccccc23)cc1 [Example 44, 3-(4-((4-(3-(3-(tert-Butyl)-1-(p-tolyl)-1H-pyrazol-5-yl)ureido)naphthalen-1-yl)oxy)pyridin-2-yl)-1,1-dimethylurea] |  |  |  |  |  |  | − (<=30%) | − (<=30%) | < 5000 nM |  |  |  |  | < 10 nM | < 10 nM | < 10 nM | < 10 nM |  | 
Cc1ccc(-n2nc(C(C)(C)C)cc2NC(=O)Nc2ccc(Oc3ccnc(NC(=O)CN(C)C)c3)c3ccccc23)cc1 [Example 12, N-(4-(4-(3-(3-tert-Butyl-1-p-tolyl-1H-pyrazol-5-yl)ureido)naphthalen-1-yloxy)pyridin-2-yl)-(dimethylamino)acetamide] | < 10 nM | < 10 nM | < 10 nM | < 10 nM |  |  |  |  |  |  | < 5000 nM |  |  |  |  |  |  | −^$ (<=30%) | +^$ (>30%)
Cc1ccc(-n2nc(C(C)(C)C)cc2NC(=O)Nc2ccc(Oc3ccnc(NC(=O)N4CC[C@@H](N(C)C)C4)c3)c3ccccc23)cc1 [Example 54, (R)—N-(4-(4-(3-(3-tert-Butyl-1-p-tolyl-1H-pyrazol-5-yl)ureido)naphthalen-1-yloxy)pyridin-2-yl)-3-(dimethylamino)pyrrolidine-1-carboxamide] | < 10 nM |  |  |  | < 10 nM | < 10 nM | − (<=30%) | − (<=30%) | < 10 nM | < 10 nM |  |  |  |  |  |  |  |  | 

Further lines, with some results ahead:

EC50 (U937 cells [1]; [5]) | IC50 (THP-1 cells; [8]) | IC50 (p38 MAPK alpha (MAPK14); Table 2) | IC50 (U937 cells [3]; Table 2) | SMILES | IC50 (THP-1 cells; [4]) | IC50 (BEAS2B cells; Table 3) | DU937 (cell viability) MTT assay 4 h [2, 6] | DU937 (cell viability) MTT assay 4 h [2, 7] | IC50 (p38 MAPK alpha (MAPK14); Table 3) | IC50 (U937 cells [3]; Table 3) | IC50 (BEAS2B cells; Table 2) | DU937 (cell viability) MTT assay 4 h [2, 9] | DU937 (cell viability) MTT assay 24 h [2, 9] | IC50 (THP-1 cells; THP-1, read-out: THP-1 (LPS) TNFα IC50) | IC50 (BEAS2B cells) | EC50 (U937 cells [1]; Homo sapiens, read-out: DU937 (LPS) TNFα REC50) | IC50 (U937 cells [3]) | DU937 (cell viability) MTT assay 4 h [2, 10] | DU937 (cell viability) MTT assay 24 h [2, 10]
< 10 nM |  |  |  | Cc1ccc(-n2nc(C(C)(C)C)cc2NC(=O)Nc2ccc(Oc3ccnc(NC(=O)NCC(=O)N4CCCC4)c3)c3ccccc23)cc1 [Example 53, N-(2-(3-(4-(4-(3-(3-tert-Butyl-1-p-tolyl-1H-pyrazol-5-yl)ureido)naphthalen-1-yloxy)pyridin-2-yl)ureido)acetyl)pyrrolidine] | < 10 nM | < 10 nM | − (<=30%) | − (<=30%) | < 10 nM | < 5000 nM |  |  |  |  |  |  |  |  | 
< 10 nM | < 10 nM | < 10 nM | < 10 nM | COCC(=O)NCC(=O)Nc1cc(Oc2ccc(NC(=O)Nc3cc(C(C)(C)C)nn3-c3ccc(C)cc3)c3ccccc23)ccn1 [Example 15, N-(4-(4-(3-(3-tert-Butyl-1-p-tolyl-1H-pyrazol-5-yl)ureido)naphthalen-1-yloxy)pyridin-2-yl)-2-(2-methoxyacetamido)acetamide] |  |  |  |  |  |  | < 10 nM | − (<=30%) | + (>30%) |  |  |  |  |  | 
< 10 nM | < 10 nM | < 10 nM | < 10 nM | Cc1ccc(-n2nc(C(C)(C)C)cc2NC(=O)Nc2ccc(Oc3ccnc(NC(=O)CNC(=O)C4CCOCC4)c3)c3ccccc23)cc1 [Example 16, N-(2-(4-(4-(3-(3-tert-Butyl-1-p-tolyl-1H-pyrazol-5-yl)ureido)naphthalen-1-yloxy)pyridin-2-ylamino)-2-oxoethyl)tetrahydro-2H-pyran-4-carboxamide] |  |  |  |  |  |  | < 10 nM | − (<=30%) | + (>30%) |  |  |  |  |  | 
